Patent US9994554B2, “Barbiturate and thiobarbiturate compounds for use in cancer therapy” (NUHOPE, LLC, priority 2011, dated 2018)
“And” between values parts separate entries of the source, which are not always exact repeats. Equal values may be shown once. Read-outs that look alike come from different tables or passages of the source. *1 amine or outer side, *2 acyl side, *3 side chain or, on linkers, in order; H or OH if unused. Where a SMILES comes first, the peptide text is derived from it. Bridges are numbered along the chain shown (N, C = ends). Roman numbers before positions name the chains, in order. [ ]: non-standard residue; d: D form. Actinocin(9to1) = Cc1c2oc3c(C)ccc(C(=O)[*:1])c3nc-2c(C(=O)[*:2])c(N)c1=O; NMeV = CN[C@H](C(=O)O)C(C)C; Sar = CNCC(=O)O

Tests used:
U87-MG cells = experiment: U87-MG resazurin cell assay (Example 13); assay type: cell-based; details: Homo sapiens, U-87 MG
Procedure: U87-MG cells were obtained from the ATCC, LGC Standards (#HTB-14). The cells were screened for mycoplasma (Mycoplasma Experience) and maintained in Biowhittaker Alpha MEM (Lonza #BE02-002F+10% dialyzed US FBS serum (Invitrogen #26400-044), 1% Penstrep (Gibco #15140-122).
Compounds to be tested were transferred into column 1 of a hit plate (96-well PPV Greiner #651201). 20 ul of DMSO was added to columns 2 to 11. The top concentration was 10 mM.
Serial dilution, ten-point one in three dilution curves were created using Perkin Elmer Janus (20 ul clear Robopack disposable tips #6000677 used).
2 ul of each of the compounds was transferred by pre-dispensing into black, clear bottom 96-well CellBIND Corning plates (Fisher #DPS-184-030R) using Platemate 2×2 (ThermoFisher Darts #5506).
200 μl of U87-MG cells were added to columns 1 to 11 at a density of 1000 cells per ml, and media only was dispensed into control column 12 using Wellmate (Small bore tubing set #201-30002).
After 5 days (120 hrs) incubation at 37° C. under 5% CO2 in a humidified incubator, the assay was “stopped” by addition of Resazurin sodium salt at 0.5 mM final concentration (Sigma R7017). The plates were incubated for a further 4 hrs before resorufin readout was taken from a Perkin Elmer EnVision, 550 nm excitation (photo550, Barcode 312), 580 nm emission (M580, Barcode 233), Top Mirror BODIPY (D555, Barcode 405).

NCI-H1299 = NCI-H1299 resazurin cell assay (Example 14); assay type: cell-based; details: Homo sapiens, read-out: Lung - Non small cell lung carcinoma NCI-H1299 pXC50 (converted)
Procedure: (§1) In this assay, cell lines were tested broadly using the same method as the U87 cell line assay of Example 13. NCI-H1299, CCF-STTG1 and Hep G2 cells were obtained from the ATCC. These cell lines were tested as previously described with the following modifications. NCI-H1299, CCF-STTG1 were maintained in RPMI-1640 Medium plus 10% fetal bovine serum and 1% penicillin/streptomycin, while Hep G2 cells were maintained in Eagle's Minimum Essential Medium plus 10% fetal bovine serum and 1% penicillin/streptomycin. Cells were plated at a density of 1×10^4 per ml except CFF-STTG1 cells which were seeded at a density of 2.5×10^4 per ml.

Hep G2 = Hep G2 resazurin cell assay (Example 14); assay type: cell-based; details: Homo sapiens, HepG2; read-out: Liver - Hepatocellular carcinoma Hep G2 pXC50 (converted)
Procedure: as §1

CCF-STTG1 [1] = experiment: CCF-STTG1 resazurin cell assay (Example 14); assay type: cell-based; details: Homo sapiens, read-out: Brain - Astrocytoma CCF-STTG1 pXC50 (converted)
Procedure: as §1

SW1088 = experiment: Cytotoxicity (MTS or SRB assay), SW1088; assay type: cell-based, human
Procedure: Human glioma cells were ordered from American Type Culture Collection (ATCC, Manassas, Va.), and maintained in DMEM with 4×10^−3M L-glutamine, 100 U/ml penicillin, 100 μg/ml streptomycin, and 10% fetal bovine serum (FBS). All experiments were performed at 37° C. in 5% CO2 atmosphere under cell culture conditions. […] Then cells received different dosages of γ-radiation from a ^60Co source GammaCell 220 (Nordion International Inc, Ontario, Canada) or chemotherapeutic agents for another 2-6 days. Cell cytotoxicity assay was determined by MTS [3-(4,5-dimethylthiazol-2-yl)-5-(3-carboxymethoxyphenyl)-2-(4-sulfophenyl)-2H-tetrazolium, inner salt] Cell Proliferation Assay (Promega, Madison, Wis.) or sulforhodamine B (SRB) assay at the end of the exposure period (47, 48).

U87-MG = experiment: cells; details: Homo sapiens, U-87 MG, read-out: IC50 (μM) U87-MG
Procedure: (§2) Human neuroblastoma cell lines were cultured in Dulbecco's Modified Eagle Medium (DMEM)/F12 media. Human glioma cells were ordered from American Type Culture Collection (ATCC, Manassas, Va.), and maintained in DMEM with 4×10^−3M L-glutamine, 100 U/ml penicillin, 100 μg/ml streptomycin, and 10% fetal bovine serum (FBS). All experiments were performed at 37° C. in 5% CO2 atmosphere under cell culture conditions. Prior to γ-radiation or exposure to chemotherapeutic agents, the glioma cells were plated at a density of 156 to 8,000 cells per well in 96 well plates to account for differences in growth rates, and to obtain similar cell densities for the experimental manipulations, and cultured overnight. Then cells received different dosages of γ-radiation from a ^60Co source GammaCell 220 (Nordion International Inc, Ontario, Canada) or chemotherapeutic agents for another 2-6 days. Cell cytotoxicity assay was determined by MTS [3-(4,5-dimethylthiazol-2-yl)-5-(3-carboxymethoxyphenyl)-2-(4-sulfophenyl)-2H-tetrazolium, inner salt] Cell Proliferation Assay (Promega, Madison, Wis.) or sulforhodamine B (SRB) assay at the end of the exposure period (47, 48).
(§3) Chemotype moiety compounds of CC-I were also tested on the Temodar-resistant CCF-STTG1 and Temodar®-sensitive U87-MG cell lines. The glioma cell culture and treatment is as described above.
(§4) The human glioma CCF-STTG1 cell lines were plated at a density of 5,000 cells per well in 96 well plates under standard DMEM cell culture conditions and then exposed to different concentrations of CC-I, merbarone, or ICRF-193 for 5 days. Merbarone and ICRF-193 are both topoisomerase II inhibitors (55, 56).

U251 = experiment: Cytotoxicity (MTS or SRB assay), U251; assay type: cell-based; details: U-251; human astrocytoma or glioblastoma cell line
Procedure: (§5) Human neuroblastoma cell lines were cultured in Dulbecco's Modified Eagle Medium (DMEM)/F12 media. Human glioma cells were ordered from American Type Culture Collection (ATCC, Manassas, Va.), and maintained in DMEM with 4×10^−3M L-glutamine, 100 U/ml penicillin, 100 μg/ml streptomycin, and 10% fetal bovine serum (FBS). All experiments were performed at 37° C. in 5% CO2 atmosphere under cell culture conditions. Prior to γ-radiation or exposure to chemotherapeutic agents, the glioma cells were plated at a density of 156 to 8,000 cells per well in 96 well plates to account for differences in growth rates, and to obtain similar cell densities for the experimental manipulations, and cultured overnight. […] Cell cytotoxicity assay was determined by MTS [3-(4,5-dimethylthiazol-2-yl)-5-(3-carboxymethoxyphenyl)-2-(4-sulfophenyl)-2H-tetrazolium, inner salt] Cell Proliferation Assay (Promega, Madison, Wis.) or sulforhodamine B (SRB) assay at the end of the exposure period (47, 48).

CCF-STTG1 [2] = experiment: cells; details: for IC50: Homo sapiens, CCF-STTG1, read-out: IC50 (μM) CCF-STTG1
Procedure: as §2
Temodar®-resistant cell lines were used to screen for compounds having the ability to decelerate the growth of, or kill, Temodar®-resistant cells. The efficacy of over 15,000 different compounds in the Drug Discovery Core at Pennsylvania State Hershey Medical Center was tested on Temodar®-resistant human neuroblastoma SH-SY5Y and human glioma CCF-STTG1 cell lines with a colorimetric cytotoxicity assay, the sulforhodamine B (SRB) assay (53).
as §3, §4

MCF10A = experiment: Cytotoxicity, MCF10A; assay type: cell-based, human; details: Homo sapiens, MCF-10A; immortalized, non-transformed mammary epithelial cell line
MCF7 = experiment: Cytotoxicity, MCF7; assay type: cell-based; details: MCF7; human breast adenocarcinoma cell line
Procedure: as §5

SVGp12 = experiment: Cytotoxicity, SVGp12; assay type: cell-based; details: SVGp12; SV40 transformed human astrocyte cell line
Procedure: as §5

OVCAR-3 = experiment: Cytotoxicity, ovarian cancer cells; assay type: cell-based; details: OVCAR-3; human ovarian carcinoma cell line
Procedure: To assess the effect of CC-I on the ovarian cancer cells, the cells were cultured overnight at a density of 5,000 to 10,000 cells per well in 96 well plates. Then the cells were treated with different concentrations of CC-I (Formula IV) or Formula V for another 3-6 days before cytotoxicity assay using MTS or SRB assay. The IC50 or LD50, 50% inhibition or lethal dose, of compounds is also determined using statistical software (GraphPad) as a general indicator of toxicity.

WT/SH-SY5Y = experiment: Cytotoxicity, WT/SH-SY5Y neuroblastoma; assay type: cell-based; details: wild type HFE transfected human neuroblastoma SH-SY5Y
Procedure: as §5

C282Y/SH-SY5Y = experiment: cells; assay type: cell-based; details: C282Y HFE transfected human neuroblastoma SH-SY5Y
Procedure: as §5

CCF-STTG1 cells = experiment: FITC-Annexin V/propidium iodide apoptosis assay; assay type: cell-based, human; details: CCF-STTG1, at 0.05 μg/ml (39.8 nM)
Procedure: An FITC-labeled Annexin V/propidium iodide apoptosis assay kit (Molecular Probes) was used to determine whether CC-I induces apoptosis in an astrocytoma cell line. […] The percentage of apoptotic cells by the CC-I treatment in CCF-STTG1 cells is from 10.9±0.16% at 5 pig/ml ([…]) to 48.7±0.33% at 10 μg/ml (36.2 μM). By comparison, the positive control, actinomycin D, induced apoptosis in 47.8±0.04% of the cells at 0.05 μg/ml (39.8 nM).

[3] = U87-MG, 5 days (120 hrs) incubation, read-out: Activity Score (Mean pXC50) (converted)
[4] = read-out: Brain - Glioblastoma U87 pXC50 (converted)

## CCN1C(=O)C(=C/C=C/c2ccco2)C(=O)N(CC)C1=O [DDD00124802]
U87-MG cells; [3]
  IC50: 10 to 31.6 µM
U87-MG cells; [4]
  IC50: 31.6 to 100 µM
NCI-H1299
  IC50: 1 to 10 µM
Hep G2
  IC50: 10 to 31.6 µM
CCF-STTG1 [1]
  IC50: 31.6 to 100 µM

## O=C1NC(=O)C(=C/C=C/c2ccco2)C(=O)N1 [DDD00124807]
U87-MG cells; [3]
  IC50: 10 to 31.6 µM
U87-MG cells; [4]
  IC50: 10 to 31.6 µM
NCI-H1299
  IC50: 1 to 10 µM
Hep G2
  IC50: 10 to 31.6 µM
CCF-STTG1 [1]
  IC50: 10 to 31.6 µM

## CCN1C(=O)NC(=O)/C(=C\C=C\c2ccco2)C1=O [DDD00124808]
U87-MG cells; [3]
  IC50: 10 to 31.6 µM
U87-MG cells; [4]
  IC50: 10 to 31.6 µM
NCI-H1299
  IC50: 1 to 10 µM
Hep G2
  IC50: 10 to 31.6 µM
CCF-STTG1 [1]
  IC50: 10 to 31.6 µM

## CCN1C(=O)NC(=O)/C(=C\C=C\c2ccccc2)C1=O [DDD00124809]
U87-MG cells; [3]
  IC50: 1 to 10 µM
U87-MG cells; [4]
  IC50: 1 to 10 µM
Hep G2
  IC50: 1 to 10 µM
CCF-STTG1 [1]
  IC50: 1 to 10 µM

## O=C1NC(=S)NC(=O)C1=C/C=C/c1ccco1 [DDD00124818]
U87-MG cells; [3]
  IC50: 10 to 31.6 µM
U87-MG cells; [4]
  IC50: 10 to 31.6 µM
NCI-H1299
  IC50: 1 to 10 µM
Hep G2
  IC50: > 100 µM
CCF-STTG1 [1]
  IC50: 10 to 31.6 µM

## CCN1C(=O)C(=C/C=C/c2ccccc2)C(=O)N(CC)C1=S [DDD00124821]
U87-MG cells; [3]
  IC50: 31.6 to 100 µM
U87-MG cells; [4]
  IC50: 31.6 to 100 µM
NCI-H1299
  IC50: 10 to 31.6 µM
Hep G2
  IC50: > 100 µM
CCF-STTG1 [1]
  IC50: 10 to 31.6 µM

## CCN1C(=O)C(=C/C=C/c2ccccc2)C(=O)N(CC)C1=O [DDD00125643]
U87-MG cells; [3]
  IC50: 1 to 10 µM
U87-MG cells; [4]
  IC50: 1 to 10 µM
Hep G2
  IC50: 10 to 31.6 µM
CCF-STTG1 [1]
  IC50: 1 to 10 µM

## O=C1NC(=S)NC(=O)C1=C/C=C/c1ccccc1 [Formula V]
SW1088; Homo sapiens, SW1088, read-out: IC50 (μM) SW1088
  IC50: 1.2 µM
SW1088; SW-1088 astrocytoma cells
  LD50: 0.3 μg/ml and 1.2 μM
U87-MG
  IC50: 1.8 µM
U251
  IC50: 2.5 µM
CCF-STTG1 [2]
  IC50: 3 µM
CCF-STTG1 [2]; Temodar-resistant CCF-STTG1
  cytotoxicity to CCF-STTG1 cell lines (in words): greatest toxicity
MCF10A
  IC50: 1.7 µM
MCF7
  IC50: 3.2 µM
SVGp12
  IC50: 1.6 µM
OVCAR-3
  IC50: 4.3 µM

## Cn1nnc2c(C(N)=O)ncn2c1=O [Temodar ®, Temozolomide, reference compound]
SW1088; SW1088, human astrocytoma or glioblastoma cell line, read-out: IC50 (μM) SW1088
  IC50: 29.5 µM
U87-MG
  IC50: 13.6 µM
U251
  IC50: 47.2 µM
CCF-STTG1 [2]
  IC50: 306 µM
WT/SH-SY5Y
  IC50: 103 µM
C282Y/SH-SY5Y
  IC50: 92 µM
U87-MG cells; [4]
  IC50: 10 to 31.6 µM
NCI-H1299
  IC50: > 100 µM
Hep G2
  IC50: > 100 µM
CCF-STTG1 [1]
  IC50: > 100 µM

## Cc1c2oc3c(C)ccc(C(=O)N[C@@H]4C(=O)N[C@H](C(C)C)C(=O)N5CCC[C@H]5C(=O)N(C)CC(=O)N(C)[C@@H](C(C)C)C(=O)O[C@@H]4C)c3nc-2c(C(=O)N[C@@H]2C(=O)N[C@H](C(C)C)C(=O)N3CCC[C@H]3C(=O)N(C)CC(=O)N(C)[C@@H](C(C)C)C(=O)O[C@@H]2C)c(N)c1=O [actinomycin D, reference compound] (I: T[dV]P[Sar][NMeV] / II: T[dV]P[Sar][NMeV]; ester I:1-I:C, II:1-II:C; linker I:N-II:N via Actinocin(9to1))
CCF-STTG1 cells
  percentage of apoptotic cells: 47.8±0.04%
